Measured values as given in paper PMC10866072, “Design, synthesis, molecular modelling and biological evaluation of novel 6-amino-5-cyano-2-thiopyrimidine derivatives as potent anticancer agents against leukemia and apoptotic inducers” (Journal of Enzyme Inhibition and Medicinal Chemistry, 2024).

Assays:
HCT-116 = type: cell-based; details: one dose 10^-5 M, 48 h
BT-549 = type: cell-based; details: one dose 10^-5 M, 48 h
UACC-62 = type: cell-based; details: one dose 10^-5 M, 48 h
CCRF-CEM = type: cell-based; details: one dose 10^-5 M, 48 h
MOLT-4 = type: cell-based; details: one dose 10^-5 M, 48 h
SK-MEL-28 = type: cell-based; details: one dose 10^-5 M, 48 h
UO-31 = type: cell-based; details: one dose 10^-5 M, 48 h
HCC-2998 = type: cell-based; details: one dose 10^-5 M, 48 h
HOP-62 = type: cell-based; details: one dose 10^-5 M, 48 h
IGROV1 = type: cell-based; details: one dose 10^-5 M, 48 h
NCI-H23 = type: cell-based; details: one dose 10^-5 M, 48 h
M14 = type: cell-based; details: one dose 10^-5 M, 48 h
HCT-15 = type: cell-based; details: one dose 10^-5 M, 48 h
DU-145 = type: cell-based; details: one dose 10^-5 M, 48 h
RPMI-8226 = type: cell-based; details: one dose 10^-5 M, 48 h
NCI/ADR-RES = type: cell-based; details: one dose 10^-5 M, 48 h
U251 = type: cell-based; details: one dose 10^-5 M, 48 h
SR = type: cell-based; details: one dose 10^-5 M, 48 h
MALME-3M = type: cell-based; details: one dose 10^-5 M, 48 h
T-47D = type: cell-based; details: one dose 10^-5 M, 48 h
LOX IMVI = type: cell-based; details: one dose 10^-5 M, 48 h
NCI-H522 = type: cell-based; details: one dose 10^-5 M, 48 h
HL-60(TB) = type: cell-based; details: one dose 10^-5 M, 48 h
TK-10 = type: cell-based; details: one dose 10^-5 M, 48 h
MDA-MB-435 = type: cell-based; details: one dose 10^-5 M, 48 h
SK-MEL-2 = type: cell-based; details: one dose 10^-5 M, 48 h
MDA-MB-231/ATCC = type: cell-based; details: one dose 10^-5 M, 48 h
786-0 = type: cell-based; details: one dose 10^-5 M, 48 h
NCI-H226 = type: cell-based; details: one dose 10^-5 M, 48 h
SF-539 = type: cell-based; details: one dose 10^-5 M, 48 h
HOP-92 = type: cell-based; details: one dose 10^-5 M, 48 h
SNB-19 = type: cell-based; details: one dose 10^-5 M, 48 h
SF-295 = type: cell-based; details: one dose 10^-5 M, 48 h
OVCAR-8 = type: cell-based; details: one dose 10^-5 M, 48 h
SF-268 = type: cell-based; details: one dose 10^-5 M, 48 h
NCI-H460 = type: cell-based; details: one dose 10^-5 M, 48 h
PC-3 = type: cell-based; details: one dose 10^-5 M, 48 h
HT29 = type: cell-based; details: one dose 10^-5 M, 48 h
UACC-257 = type: cell-based; details: one dose 10^-5 M, 48 h
MDA-MB-468 = type: cell-based; details: one dose 10^-5 M, 48 h
A549/ATCC = type: cell-based; details: one dose 10^-5 M, 48 h
KM12 = type: cell-based; details: one dose 10^-5 M, 48 h
CAKI-1 = type: cell-based; details: one dose 10^-5 M, 48 h
A498 = type: cell-based; details: one dose 10^-5 M, 48 h
MCF7 = type: cell-based; details: one dose 10^-5 M, 48 h
OVCAR-5 = type: cell-based; details: one dose 10^-5 M, 48 h
OVCAR-3 = type: cell-based; details: one dose 10^-5 M, 48 h
COLO 205 = type: cell-based; details: one dose 10^-5 M, 48 h
SW-620 = type: cell-based; details: one dose 10^-5 M, 48 h
SK-OV-3 = type: cell-based; details: one dose 10^-5 M, 48 h
SK-MEL-5 = type: cell-based; details: one dose 10^-5 M, 48 h
EKVX = type: cell-based; details: one dose 10^-5 M, 48 h
HS 578T = type: cell-based; details: one dose 10^-5 M, 48 h; HS 578T
SN12C = type: cell-based, human; details: one dose 10^-5 M, 48 h
[1] = tested on: full NCI 60 cell lines panel; details: for activity on all 60 cancer cell lines tested (in words): one dose; for Mean % growth: one dose 10^-5 M, 48 h, mean over all cell lines
ACHN = type: cell-based; details: one dose 10^-5 M, 48 h
SNB-75 = type: cell-based; details: one dose 10^-5 M, 48 h
K-562 = type: cell-based; details: one dose 10^-5 M, 48 h
OVCAR-4 = type: cell-based; details: one dose 10^-5 M, 48 h

“3-Amino-4-[4-(dimethylamino)phenyl]-1H-pyrazolo[3,4-d]pyrimidine-6-thiol [Compound 3a]” was tested, and the “% growth” value (HCT-116) was 101.11%, the “% growth” value (BT-549) was 95.32% and the “% growth” value (UACC-62) was 97.30%. The “% growth” value (CCRF-CEM) was 77.55%, the “% growth” value (MOLT-4) was 100.00% and the “% growth” value (SK-MEL-28) was 112.69%. For the same substance, the “% growth” value (UO-31) was 58.31%, the “% growth” value (HCC-2998) was 108.59% and the “% growth” value (HOP-62) was 108.87%. The “% growth” value (IGROV1) was 104.23%, the “% growth” value (NCI-H23) was 98.77% and the “% growth” value (M14) was 99.09%. For the same substance, the “% growth” value (HCT-15) was 95.53%, the “% growth” value (DU-145) was 116.81% and the “% growth” value (RPMI-8226) was 86.49%. For the same substance, the “% growth” value (NCI/ADR-RES) was 103.45%, the “% growth” value (U251) was 109.49% and the “% growth” value (SR) was 90.80%. For the same substance, the “% growth” value (MALME-3M) was 102.71%, the “% growth” value (T-47D) was 102.75% and the “% growth” value (LOX IMVI) was 97.52%. For the same substance, the “% growth” value (NCI-H522) was 92.08%, the “% growth” value (HL-60(TB)) was 89.88% and the “% growth” value (TK-10) was 119.65%. For the same substance, the “% growth” value (MDA-MB-435) was 109.49%, the “% growth” value (SK-MEL-2) was 111.64% and the “% growth” value (MDA-MB-231/ATCC) was 98.99%. For the same substance, the “% growth” value (786-0) was 109.39%, the “% growth” value (NCI-H226) was 95.19% and the “% growth” value (SF-539) was 108.53%. For the same substance, the “% growth” value (HOP-92) was 116.09%, the “% growth” value (SNB-19) was 101.52% and the “% growth” value (SF-295) was 105.95%. For the same substance, the “% growth” value (OVCAR-8) was 104.18%, the “% growth” value (SF-268) was 105.34% and the “% growth” value (NCI-H460) was 108.52%. The “% growth” value (PC-3) was 78.25%, the “% growth” value (HT29) was 108.47% and the “% growth” value (UACC-257) was 110.00%. The “% growth” value (MDA-MB-468) was 115.89%, the “% growth” value (A549/ATCC) was 110.12% and the “% growth” value (KM12) was 97.17%. The “% growth” value (CAKI-1) was 92.97%, the “% growth” value (A498) was 162.31% and the “% growth” value (MCF7) was 88.54%. For the same substance, the “% growth” value (OVCAR-5) was 107.30%, the “% growth” value (OVCAR-3) was 116.36% and the “% growth” value (COLO 205) was 120.31%. The “% growth” value (SW-620) was 115.71%, the “% growth” value (SK-OV-3) was 107.23% and the “% growth” value (SK-MEL-5) was 104.39%. The “% growth” value (EKVX) was 97.12%, the “% growth” value (HS 578T) was 108.39% and the “% growth” value (SN12C) was 100.69%. For the same substance, the “activity on all 60 cancer cell lines tested (in words)” value [1] was “weak activity”, the Mean % growth [1] was 103.40% and the “% growth” value (ACHN) was 92.14%. For the same substance, the “% growth” value (SNB-75) was 116.67%, the “% growth” value (K-562) was 102.48% and the “% growth” value (OVCAR-4) was 103.10%.
With “4-Amino-6-[4-(dimethylamino)phenyl]-2-mercaptopyrimidine-5-carboximidohydrazide [Compound 2a]” the “% growth” value (HCT-116) was 103.97%, the “% growth” value (BT-549) was 106.15% and the “% growth” value (UACC-62) was 96.91%. For the same substance, the “% growth” value (CCRF-CEM) was 91.59%, the “% growth” value (MOLT-4) was 109.54% and the “% growth” value (SK-MEL-28) was 108.97%. For the same substance, the “% growth” value (UO-31) was 69.66%, the “% growth” value (HCC-2998) was 114.82% and the “% growth” value (HOP-62) was 107.78%. The “% growth” value (IGROV1) was 109.01%, the “% growth” value (NCI-H23) was 104.78% and the “% growth” value (M14) was 103.05%. For the same substance, the “% growth” value (HCT-15) was 103.47%, the “% growth” value (DU-145) was 111.10% and the “% growth” value (RPMI-8226) was 98.02%. The “% growth” value (NCI/ADR-RES) was 104.56%, the “% growth” value (U251) was 106.99% and the “% growth” value (SR) was 102.70%. For the same substance, the “% growth” value (MALME-3M) was 100.97%, the “% growth” value (T-47D) was 99.52% and the “% growth” value (LOX IMVI) was 101.99%. For the same substance, the “% growth” value (NCI-H522) was 100.34%, the “% growth” value (HL-60(TB)) was 99.62% and the “% growth” value (TK-10) was 112.54%. For the same substance, the “% growth” value (MDA-MB-435) was 114.53%, the “% growth” value (SK-MEL-2) was 117.18% and the “% growth” value (MDA-MB-231/ATCC) was 103.57%. The “% growth” value (786-0) was 105.86%, the “% growth” value (NCI-H226) was 96.50% and the “% growth” value (SF-539) was 107.89%. The “% growth” value (HOP-92) was 114.12%, the “% growth” value (SNB-19) was 101.46% and the “% growth” value (SF-295) was 112.06%. For the same substance, the “% growth” value (OVCAR-8) was 116.82%, the “% growth” value (SF-268) was 101.57% and the “% growth” value (NCI-H460) was 102.69%. The “% growth” value (PC-3) was 87.24%, the “% growth” value (HT29) was 107.55% and the “% growth” value (UACC-257) was 109.40%. For the same substance, the “% growth” value (MDA-MB-468) was 117.68%, the “% growth” value (A549/ATCC) was 107.34% and the “% growth” value (KM12) was 103.89%. For the same substance, the “% growth” value (CAKI-1) was 93.33%, the “% growth” value (A498) was 129.90% and the “% growth” value (MCF7) was 86.35%. The “% growth” value (OVCAR-5) was 116.97%, the “% growth” value (OVCAR-3) was 105.79% and the “% growth” value (COLO 205) was 134.76%. The “% growth” value (SW-620) was 105.68%, the “% growth” value (SK-OV-3) was 120.70% and the “% growth” value (SK-MEL-5) was 104.41%. For the same substance, the “% growth” value (EKVX) was 95.76%, the “% growth” value (HS 578T) was 111.82% and the “% growth” value (SN12C) was 106.67%. The “activity on all 60 cancer cell lines tested (in words)” value [1] was “weak activity”, the Mean % growth [1] was 105.50% and the “% growth” value (ACHN) was 99.26%. For the same substance, the “% growth” value (SNB-75) was 115.82%, the “% growth” value (K-562) was 103.46% and the “% growth” value (OVCAR-4) was 96.78%.
